Where two headings read alike, the source gives them in different places.
Tests used:
[1] = target: human Werner helicase (WRN, amino acids 517-1235 with L1074F point mutation) (Homo sapiens (Human), UniProt Q14191, L1074F); experiment: WRN (BV08) ADP-Glo assay; type: biochemical; settings: human WRN (aa 517-1235, L1074F), read-out: ADP-Glo_hWRN_IC50
How it was run: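 Untagged WRN 517-1235 (L1074F), Sf9/baculovirus-expressed, 0.15 nM, preincubated 15 min with compound, then 5 μM ATP and 0.1 nM annealed DNA duplex added; 60 min at 25 °C in Bicine pH 7.5, 1 mM MgCl2, 1% DMSO. ADP-Glo luminescence; % inhibition vs DMSO and 20 μM NSC-617145 controls, four-parameter IC50 fit.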

[2] = tested on: p21 induction in HCT 116 cells; experiment: p21 induction in cells (In-Cell Western, p21/GAPDH ratio); type: cell-based; settings: 24 h compound incubation, read-out: p21_EC50
How it was run: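 HCT 116 cells treated 24 h at 37° C with 11-point, 2-fold dilutions typically from 10 μM, in duplicate. Fixed cells co-stained for p21 (800 nm) and GAPDH (700 nm) by In-Cell Western. p21/GAPDH ratio normalised between DMSO and reference WRN inhibitor controls, and EC50 obtained by nonlinear regression.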

Sequence of human Werner helicase (WRN, amino acids 517-1235 with L1074F point mutation) (Q14191 other isoform, or with tags, fused parts or gaps L1074F (already in the parent)): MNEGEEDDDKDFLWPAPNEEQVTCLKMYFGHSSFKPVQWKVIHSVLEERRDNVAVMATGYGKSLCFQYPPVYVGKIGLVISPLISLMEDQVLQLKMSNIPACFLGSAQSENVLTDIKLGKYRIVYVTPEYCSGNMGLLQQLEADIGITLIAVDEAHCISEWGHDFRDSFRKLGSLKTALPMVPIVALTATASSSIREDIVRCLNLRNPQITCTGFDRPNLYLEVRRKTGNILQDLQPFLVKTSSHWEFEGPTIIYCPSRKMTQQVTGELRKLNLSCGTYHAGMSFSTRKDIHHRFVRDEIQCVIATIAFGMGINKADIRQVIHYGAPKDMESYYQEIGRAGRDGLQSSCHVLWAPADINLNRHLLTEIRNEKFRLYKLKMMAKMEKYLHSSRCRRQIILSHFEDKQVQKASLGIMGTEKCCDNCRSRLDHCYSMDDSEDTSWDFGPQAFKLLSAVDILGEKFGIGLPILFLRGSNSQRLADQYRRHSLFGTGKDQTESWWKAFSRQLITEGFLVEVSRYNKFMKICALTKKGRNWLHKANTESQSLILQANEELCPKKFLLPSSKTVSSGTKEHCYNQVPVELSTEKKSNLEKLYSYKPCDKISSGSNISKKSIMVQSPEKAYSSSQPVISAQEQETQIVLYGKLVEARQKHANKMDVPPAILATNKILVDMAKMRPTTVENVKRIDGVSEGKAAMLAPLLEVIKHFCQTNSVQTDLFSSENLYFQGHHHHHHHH

Row | SMILES | IC50 [1] | EC50 ([2]; Homo sapiens) | EC50 [2]
1 | CCc1c(N2CCN(C(=O)c3ncnc(C)c3O)[C@H]3CC[C@@H]32)c(=O)c2nn(-c3cnn(C4CC4)c3)nc2n1CC(=O)NC12CC(C3CC3)(C1)C2 [Compound I-46, 2-[2-(1-cyclopropyl-1H-pyrazol-4-yl)-5-ethyl-6-[(1S,6S)-5-(5-hydroxy-6-methylpyrimidine-4-carbonyl)-2,5-diazabicyclo[4.2.0]octan-2-yl]-7-oxo-2H,4H,7H-[1,2,3]triazolo[4,5-b]pyridin-4-yl]-N-{3-cyclopropylbicyclo[1.1.1]pentan-1-yl}acetamide] | 5 to 50 nM | ≤ 500 nM | 
2 | CCc1c(N2CCN(C(=O)c3ncnc(C)c3O)[C@H]3CC[C@@H]32)c(=O)c2nn(-c3ccnc(OC)c3)nc2n1CC(=O)NC1CC2(CC(F)C2)C1 (stereo partly drawn) [Compound I-47, 2-{5-ethyl-6-[(1S,6S)-5-(5-hydroxy-6-methylpyrimidine-4-carbonyl)-2,5-diazabicyclo[4.2.0]octan-2-yl]-2-(2-methoxypyridin-4-yl)-7-oxo-2H,4H,7H-[1,2,3]triazolo[4,5-b]pyridin-4-yl}-N-{6-fluorospiro[3.3]heptan-2-yl}acetamide] | 5 to 50 nM | 500 to 2000 nM | 
3 | CCc1c(N2CCN(C(=O)c3ncnc(C)c3O)[C@H]3CC[C@@H]32)c(=O)c2nn(C3=CCOCC3)nc2n1CC(=O)NC12CC(C(C)C)(C1)C2 [Compound I-49, 2-[2-(3,6-dihydro-2H-pyran-4-yl)-5-ethyl-6-[(1S,6S)-5-(5-hydroxy-6-methylpyrimidine-4-carbonyl)-2,5-diazabicyclo[4.2.0]octan-2-yl]-7-oxo-2H,4H,7H-[1,2,3]triazolo[4,5-b]pyridin-4-yl]-N-[3-(propan-2-yl)bicyclo[1.1.1]pentan-1-yl]acetamide] | 5 to 50 nM |  | ≤ 500 nM
4 | CCc1c(N2CCN(C(=O)c3cccc4ncoc34)[C@H]3CC[C@@H]32)c(=O)c2nn(C3=CCOCC3)nc2n1CC(=O)NC12CC(C(C)C)(C1)C2 [Compound I-52, 2-{6-[(1S,6S)-5-(1,3-benzoxazole-7-carbonyl)-2,5-diazabicyclo[4.2.0]octan-2-yl]-2-(3,6-dihydro-2H-pyran-4-yl)-5-ethyl-7-oxo-2H,4H,7H-[1,2,3]triazolo[4,5-b]pyridin-4-yl}-N-[3-(propan-2-yl)bicyclo[1.1.1]pentan-1-yl]acetamide] | 5 to 50 nM | 500 to 2000 nM | 
5 | CCc1c(N2CCN(C(=O)c3ccccc3OC)[C@H]3CC[C@@H]32)c(=O)c2nn(C3=CCOCC3)nc2n1CC(=O)NC12CC(C(C)C)(C1)C2 [Compound I-53, 2-[2-(3,6-dihydro-2H-pyran-4-yl)-5-ethyl-6-[(1S,6S)-5-(2-methoxybenzoyl)-2,5-diazabicyclo[4.2.0]octan-2-yl]-7-oxo-2H,4H,7H-[1,2,3]triazolo[4,5-b]pyridin-4-yl]-N-[3-(propan-2-yl)bicyclo[1.1.1]pentan-1-yl]acetamide] | 5 to 50 nM | ≤ 500 nM | 
6 | CCc1c(N2CCN(C(=O)c3ncnc(C)c3O)[C@H]3CC[C@@H]32)c(=O)c2nn(-c3ccnc(OC)c3)nc2n1CC(=O)NC12CC(C(F)(F)F)(C1)C2 [Compound I-54, 2-{5-ethyl-6-[(1S,6S)-5-(5-hydroxy-6-methylpyrimidine-4-carbonyl)-2,5-diazabicyclo[4.2.0]octan-2-yl]-2-(2-methoxypyridin-4-yl)-7-oxo-2H,4H,7H-[1,2,3]triazolo[4,5-b]pyridin-4-yl}-N-[3-(trifluoromethyl)bicyclo[1.1.1]pentan-1-yl]acetamide] | 5 to 50 nM |  | ≤ 500 nM
7 | CCc1c(N2CCN(C(=O)c3ncnc(C)c3O)[C@H]3CC[C@@H]32)c(=O)c2nn(-c3cnn(C4CC4)c3)nc2n1CC(=O)Nc1ccc(C(F)(F)F)cc1Cl [Compound I-57, N-[2-chloro-4-(trifluoromethyl)phenyl]-2-[2-(1-cyclopropyl-1H-pyrazol-4-yl)-5-ethyl-6-[(1S,6S)-5-(5-hydroxy-6-methylpyrimidine-4-carbonyl)-2,5-diazabicyclo[4.2.0]octan-2-yl]-7-oxo-2H,4H,7H-[1,2,3]triazolo[4,5-b]pyridin-4-yl]acetamide] | ≤ 5 nM | ≤ 500 nM | 
8 | CCc1c(N2CCN(C(=O)c3ncnc(C)c3O)[C@H]3CC[C@@H]32)c(=O)c2nn(-c3cnn(C4CC4)c3)nc2n1CC(=O)NC12CC(C(C)C)(C1)C2 [Compound I-58, 2-[2-(1-cyclopropyl-1H-pyrazol-4-yl)-5-ethyl-6-[(1S,6S)-5-(5-hydroxy-6-methylpyrimidine-4-carbonyl)-2,5-diazabicyclo[4.2.0]octan-2-yl]-7-oxo-2H,4H,7H-[1,2,3]triazolo[4,5-b]pyridin-4-yl]-N-[3-(propan-2-yl)bicyclo[1.1.1]pentan-1-yl]acetamide] | 5 to 50 nM |  | ≤ 500 nM
9 | CCc1c(N2CCN(C(=O)c3ncnc(C)c3O)[C@H]3CC[C@@H]32)c(=O)c2nn(-c3ccnc(C)c3)nc2n1CC(=O)Nc1ccc(C(F)(F)F)cc1F [Compound I-59, 2-{5-ethyl-6-[(1S,6S)-5-(5-hydroxy-6-methylpyrimidine-4-carbonyl)-2,5-diazabicyclo[4.2.0]octan-2-yl]-2-(2-methylpyridin-4-yl)-7-oxo-2H,4H,7H-[1,2,3]triazolo[4,5-b]pyridin-4-yl}-N-[2-fluoro-4-(trifluoromethyl)phenyl]acetamide] | ≤ 5 nM | ≤ 500 nM | 
10 | CCc1c(N2CCN(C(=O)c3ncnc(C)c3O)[C@H]3CC[C@@H]32)c(=O)c2nn(-c3ccnc(OC)c3)nc2n1CC(=O)NC12CC(C(C)(F)F)(C1)C2 [Compound I-61, N-[3-(1,1-difluoroethyl)bicyclo[1.1.1]pentan-1-yl]-2-{5-ethyl-6-[(1S,6S)-5-(5-hydroxy-6-methylpyrimidine-4-carbonyl)-2,5-diazabicyclo[4.2.0]octan-2-yl]-2-(2-methoxypyridin-4-yl)-7-oxo-2H,4H,7H-[1,2,3]triazolo[4,5-b]pyridin-4-yl}acetamide] | 5 to 50 nM |  | ≤ 500 nM

Continued, values first:

Row | IC50 [1] | EC50 ([2]; Homo sapiens) | EC50 [2] | SMILES
11 | 5 to 50 nM |  | ≤ 500 nM | CCc1c(N2CCN(C(=O)c3ncnc(C)c3O)[C@H]3CC[C@@H]32)c(=O)c2nn(-c3ccnc(OC)c3)nc2n1CC(=O)NC12CC(C(C)C)(C1)C2 [Compound I-48, 2-{5-ethyl-6-[(1S,6S)-5-(5-hydroxy-6-methylpyrimidine-4-carbonyl)-2,5-diazabicyclo[4.2.0]octan-2-yl]-2-(2-methoxypyridin-4-yl)-7-oxo-2H,4H,7H-[1,2,3]triazolo[4,5-b]pyridin-4-yl}-N-[3-(propan-2-yl)bicyclo[1.1.1]pentan-1-yl]acetamide]
12 | 5 to 50 nM | 2000 to 5000 nM |  | CCc1c(N2CCN(C(=O)c3c(OC)ncc(COC)c3O)CC2)c(=O)c2nn(-c3ccnc(OC)c3)nc2n1CC(=O)NC12CC(C(C)C)(C1)C2 [Compound I-50, 2-(5-ethyl-6-{4-[4-hydroxy-2-methoxy-5-(methoxymethyl)pyridine-3-carbonyl]piperazin-1-yl}-2-(2-methoxypyridin-4-yl)-7-oxo-2H,4H,7H-[1,2,3]triazolo[4,5-b]pyridin-4-yl)-N-[3-(propan-2-yl)bicyclo[1.1.1]pentan-1-yl]acetamide]
13 | 5 to 50 nM | 2000 to 5000 nM |  | CCc1c(N2CCN(C(=O)c3c(OC)ncc(C(F)F)c3O)CC2)c(=O)c2nn(-c3ccnc(OC)c3)nc2n1CC(=O)NC12CC(C(C)C)(C1)C2 [Compound I-51, 2-(6-{4-[5-(difluoromethyl)-4-hydroxy-2-methoxypyridine-3-carbonyl]piperazin-1-yl}-5-ethyl-2-(2-methoxypyridin-4-yl)-7-oxo-2H,4H,7H-[1,2,3]triazolo[4,5-b]pyridin-4-yl)-N-[3-(propan-2-yl)bicyclo[1.1.1]pentan-1-yl]acetamide]
14 | 5 to 50 nM | ≤ 500 nM |  | CCc1c(N2CCN(C(=O)c3c(OC(F)F)ncc(C)c3O)CC2)c(=O)c2nn(-c3ccnc(OC)c3)nc2n1CC(=O)NC12CC(C(C)C)(C1)C2 [Compound I-56, 2-(6-{4-[2-(difluoromethoxy)-4-hydroxy-5-methylpyridine-3-carbonyl]piperazin-1-yl}-5-ethyl-2-(2-methoxypyridin-4-yl)-7-oxo-2H,4H,7H-[1,2,3]triazolo[4,5-b]pyridin-4-yl)-N-[3-(propan-2-yl)bicyclo[1.1.1]pentan-1-yl]acetamide]
15 | 5 to 50 nM | ≤ 500 nM |  | CCc1c(N2CCN(C(=O)c3c(Oc4cnn(C)c4)ncc(C)c3O)CC2)c(=O)c2nn(-c3ccnc(OC)c3)nc2n1CC(=O)NC12CC(C(C)C)(C1)C2 [Compound I-63, 2-[5-ethyl-6-(4-{4-hydroxy-5-methyl-2-[(1-methyl-1H-pyrazol-4-yl)oxy]pyridine-3-carbonyl}piperazin-1-yl)-2-(2-methoxypyridin-4-yl)-7-oxo-2H,4H,7H-[1,2,3]triazolo[4,5-b]pyridin-4-yl]-N-[3-(propan-2-yl)bicyclo[1.1.1]pentan-1-yl]acetamide]
16 | 5 to 50 nM | ≤ 500 nM |  | CCc1c(N2CCN(C(=O)c3c(OC)ncc(OC)c3O)CC2)c(=O)c2nn(-c3ccnc(OC)c3)nc2n1CC(=O)NC12CC(C(C)C)(C1)C2 [Compound I-64, 2-{5-ethyl-6-[4-(4-hydroxy-2,5-dimethoxypyridine-3-carbonyl)piperazin-1-yl]-2-(2-methoxypyridin-4-yl)-7-oxo-2H,4H,7H-[1,2,3]triazolo[4,5-b]pyridin-4-yl}-N-[3-(propan-2-yl)bicyclo[1.1.1]pentan-1-yl]acetamide]
